How the values were obtained:
[1] = background statement; cited from earlier work
[2] = Sulfobutyl ether-β-cyclodextrin inclusion of temsirolimus, appearance of the solution; format: physicochemical; conditions: 1 mg/mL temsirolimus; application amount of sulfobutyl ether-β-cyclodextrin 50%
Method: The druggabilities of sulfobutyl ether-β-cyclodextrin inclusion complex, liposome, and fat emulsion were investigated. The drug loading was fixed at 1 mg/ml for parallel comparisons. The main study protocol and results were summarized as follows:
Formula amount of sulfobutyl ether-β-cyclodextrin was weighed, and dissolved by adding quantum satis water for injection, and setting the volume thereof to 100 mL; formula amount of temsirolimus was weighed, added into the aqueous solution of sulfobutyl ether-β-cyclodextrin, and stirred them at room temperature for 2 h.
Formula amount of sulfobutyl ether-β-cyclodextrin was weighed, dissolved by adding quantum satis water for injection to give an aqueous phase; formula amounts of temsirolimus and organic vehicle (anhydrous ethanol, or propanediol, or PEG4000) were weighed, dissolved by water-bath ultrasound to give an organic phase; the organic phase was poured into the aqueous phase with stirring, and mixed uniformly, and setting the volume thereof to full volume with water for injection, and thus the formulations were obtained.

[3] = Solubility of temsirolimus in common oils for injection (medium chain oil, soybean oil); format: physicochemical; conditions: for Dissolution state: 30 min
From the text: Investigation of the solubility of temsirolimus in common oils for injection (medium chain oil, soybean oil)

mice = conditions: injected via tail vein of mice, compared with Tween 80; cited from earlier work

Compound	Solubility in water [1]	Inclusion of temsirolimus by sulfobutyl ether-β-cyclodextrin [2]	Dissolution state ([3]; Medium chain oil, 10 mg/g, 60° C.)	Dissolution state ([3]; Medium chain oil, 10 mg/g, 70° C.)	Dissolution state ([3]; Medium chain oil, 10 mg/g, 80° C.)	Dissolution state ([3]; Medium chain oil, 20 mg/g, 60° C.)	Dissolution state ([3]; Medium chain oil, 20 mg/g, 70° C.)	Dissolution state ([3]; Medium chain oil, 20 mg/g, 80° C.)	Dissolution state ([3]; Medium chain oil, 30 mg/g, 60° C.)	Dissolution state ([3]; Medium chain oil, 30 mg/g, 70° C.)	Dissolution state ([3]; Medium chain oil, 30 mg/g, 80° C.)	Dissolution state ([3]; Medium chain oil, 40 mg/g, 60° C.)	Dissolution state ([3]; Medium chain oil, 40 mg/g, 70° C.)	Dissolution state ([3]; Medium chain oil, 40 mg/g, 80° C.)	Dissolution state ([3]; Soybean oil, 10 mg/g, 60° C.)	Dissolution state ([3]; Soybean oil, 10 mg/g, 70° C.)	Dissolution state ([3]; Soybean oil, 10 mg/g, 80° C.)	Solubilities in the medium chain oil and soybean oil ([3]; summary in words)	Acute toxicity (mice)
CO[C@H]1C[C@@H]2CC[C@@H](C)[C@@](O)(O2)C(=O)C(=O)N2CCCC[C@H]2C(=O)O[C@H]([C@H](C)C[C@@H]2CC[C@@H](OC(=O)C(C)(CO)CO)[C@H](OC)C2)CC(=O)[C@H](C)/C=C(\C)[C@@H](O)[C@@H](OC)C(=O)[C@H](C)C[C@H](C)/C=C/C=C/C=C/1C [temsirolimus, 42-bis(hydroxymethyl) propionate of sirolimus]	almost insoluble in water	cannot be included	Severe	Severe	Severe	Severe	Severe	Severe	Severe	Severe	Severe	Severe	Severe	Severe	Severe	Severe	Severe	poor	–
polyethylene glycol stearate 15	–	–	–	–	–	–	–	–	–	–	–	–	–	–	–	–	–	–	great, even greater than that of Tween 80
